Reference: patent US20190274974A1, “Treatment of Pain Associated with Trigeminal Neuralgia” (priority 2011, published 2019)
“Also recorded” adds a separate entry of the source.

Legend:
[1] = test system: CCI-ION rats; format: in vivo, rat
Protocol: Rats are anaesthetized with sodium pentobarbital (50 mg/kg i.p.). Unilateral CCI-ION is performed under direct visual control using a Zeiss microscope (10-25×) essentially as described by Vos et al (Vos B P, Strassman A M, Maciewicz R J (1994), J. Neurosci. 14: 2708-2723). Briefly, the head is fixed in a Horsley-Clarke stereotaxic frame and a midline scalp incision is made, exposing skull and nasal bone. The edge of the orbit, formed by the maxillary, frontal, lacrimal, and zygomatic bones, is dissected free. The orbital contents are gently deflected to give access to the infraorbital nerve which is dissected free at its most rostral extent in the orbital cavity, just caudal to the infraorbital foramen. Only 5 mm of the nerve can be freed (Vos et al.), providing the space for placement of two chromic catgut (5-0) ligations tied loosely (with about 2 mm spacing) around it. […] Finally, scalp incision is closed using silk sutures (4-0). In sham-operated rats, the ION is exposed using the […] procedure, but is not ligated.
Mechanical sensitivity is determined with a graded series of eleven von Frey filaments (Bioseb, Bordeaux, France). The filaments produce a bending force of 0.07, 0.16, 0.40, 0.60, 1.00, 2.00, 4.00, 6.00, 8.00, 10.00 and 12.00 g, respectively. The stimuli are applied within the ION territory (vibrissae pad) three times at the nerve-injured side and then at the contralateral side for a total of 6 applications of each filament per rat, always beginning with the filament producing the lowest force. The von Frey filaments are applied at least 3 seconds after the rats returned to their initial resting state. For each session, the complete series of von Frey filaments is tested in increasing force order.
The latter responses represent the highest scores in the rank-ordered response scoring system initially described by Vos et al. The minimal force filament causing at least one among these responses (to at least 2 out of the 3 an each side) allows determination of the mechanical response threshold. The 12.00 g filament is the cut-off threshold (no tissue-injury occurs at this pressing force).
For studying the effects of acute treatment with tapentadol in CCI-ION rats, tapentadol (1 or 10 mg/kg i.p.) or its vehicle (0.9% NaCl i. p.) was injected acutely 14 days after surgery. Sham-operated rats were treated in parallel. Pressure threshold values to trigger nocifensive responses to von Frey filaments application onto the plantar surface of ipsilateral hindpaw were determined at various times after acute injection of tapentadol or saline. Cut-off was fixed at 12 g pressure.
For studying the effects of subchronic treatment with tapentadol in CCI-ION rats, starting on day 16 (Time=D) after surgery, they received i.p. injections of tapentadol (10 mg/kg, twice daily, at 10:00 AM and 6:00 PM) or saline (at the same day times as the drug) for four days. On the following day (day 20 after surgery), both tapentadol- and saline-pretreated CCI-SN rats were i.p. injected with Tapentadol (10 mg/kg; Time=0) and then subjected to von Frey filaments' test applied to ipsilateral hindpaw for determination of pressure threshold values at various times thereafter.
14 days after CCI-ION surgery, rats were injected with reboxetine (10 mg/kg i.p.) or its vehicle (0.9% NaCl) followed, 15 min later, by morphine (3 mg/kg s.c.) or its vehicle (0.9% NaCl) and subjected to von Frey filament tests for the following 4 hours. Sham-operated rats were treated in parallel.

[2] = test system: CCI-SN rats; test: Randall-Selitto test in CCI-SN rats; format: in vivo, rat; settings: 10 mg/kg i.p., acute
Protocol: Rats are anaesthetized with sodium pentobarbital (50 mg/kg i.p.). Unilateral CCI-SN is performed under direct visual control using a Zeiss microscope (10-25×) essentially as described by Bennett and Xie (G. J. Bennett et al., Pain, 33 (1988) 87-107).
Pain is produced by applying increasing pressure (0-450 g/mm^2) with a punch (0.2 mm tip diameter) on the rat's hind paw. The measured value to be determined is the pressure at which either a hindpaw withdrawal response or a vocalisation reaction of the animal occurs.
Tapentadol (10 mg/kg i.p.) or its vehicle (0.9% NaCl i. p.) was injected in CCI-SN rats acutely 14 days after surgery. Pressure threshold values to trigger hindpaw withdrawal (A) or vocalization (B) were determined using the Randall-Selitto test at various times after acute i.p. administration (Time=0) of Tapentadol or saline.
The results are summarized and depicted in FIG. 1 (A and B). Each point is the mean±S.E.M. of 3-4 independent determinations. * P<0.05 compared to pressure threshold values in the same rats before surgery (C on abscissa); Dunnett's test.

[3] = target: recombinantly produced μ-opioid receptor (Homo sapiens, UniProt P35372); settings: cited from earlier work
recombinantly produced μ-opioid receptor, sequence (P35372 whole entry): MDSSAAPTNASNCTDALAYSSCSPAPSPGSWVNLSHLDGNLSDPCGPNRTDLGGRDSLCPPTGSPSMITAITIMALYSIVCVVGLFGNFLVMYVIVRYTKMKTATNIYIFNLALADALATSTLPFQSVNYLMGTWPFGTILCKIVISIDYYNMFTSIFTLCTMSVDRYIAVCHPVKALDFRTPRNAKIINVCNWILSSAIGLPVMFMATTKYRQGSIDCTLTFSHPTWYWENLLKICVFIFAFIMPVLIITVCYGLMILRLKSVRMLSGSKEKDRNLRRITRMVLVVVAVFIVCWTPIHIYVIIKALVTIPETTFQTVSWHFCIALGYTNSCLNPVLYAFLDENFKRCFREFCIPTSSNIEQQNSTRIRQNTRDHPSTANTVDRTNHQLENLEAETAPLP

## CC[C@@H](c1cccc(O)c1)[C@@H](C)CN(C)C [tapentadol, (−)-(1R,2R)-3-(3-dimethylamino-1-ethyl-2-methyl-propyl)-phenol]
[1]; 1 mg/kg i.p., acute
  time for pressure threshold values to return to saline level after the maximum: ≤ 45 min
  time over which the increase in pressure threshold developed: 45 min
[1]; 1 mg/kg i.p., acute, two weeks after surgery
  increase in pressure threshold value compared to saline-treated CCI-ION rats: ≤ 6 fold
[1]; 10 mg/kg i.p. twice daily for four days or saline, then 10 mg/kg i.p.
  anti-allodynic effect after subchronic pretreatment (sensitization/desensitization): had the same characteristics (amplitude, duration); also recorded: neither in CCI-SN rats nor in those with CCI-ION, any sign of sensitization or desensitization
[1]; 10 mg/kg i.p., acute
  duration of statistically significant anti-allodynic effect: more than two hours
[1]; 10 mg/kg i.p., acute, 30-60 min after injection
  pressure threshold values relative to those determined prior to injection: 15-20 fold
[2]; 14 days after surgery
  duration of the increase in pressure threshold values (hindpaw withdrawal and vocalization): at least 60 min
[2]; first 45 min after administration
  pressure threshold values to trigger vocalization relative to untreated healthy rats: +20%
[2]; first hour after treatment
  pressure threshold values to cause hindpaw withdrawal compared to intact healthy rats before surgery: did not significantly differ from those determined in intact healthy rats
[3]
  affinity to the μ-opioid receptor, times less than that of morphine: 18 times
